Assay results published in patent US9895363B2, “Methods for modulating function of proliferating cell nuclear antigen (PCNA) and treating cancer with PCNA-targeting compounds” (University of Cincinnati, priority 2010, dated 2018).

Legend:
[1] = system: MCF-7 breast cancer cells; test: Growth inhibition by MTT staining, MCF-7; format: cell-based; conditions: MCF7, 96 h, Human, tumor cells, treated four days
Experimental: (§1) Growth inhibitory effects of PCNA-I1 and PCNA-I2 were assessed in human cancer cell lines, mouse cancer cell lines, immortalized mouse cell lines, and human primary cell lines. Specifically, growth inhibitory effects of PCNA-I1 and PCNA-I2 were assessed using MTT staining in the following cells lines: 1) human cancer cell lines including LNCaP (androgen receptor […]), 22Rv1, DU-145, LAPC-4, and PC-3 (androgen receptor […]) prostate cancer cells; MCF-7 and T47D breast cancer cells; A375 and MDA-MB435 melanoma cells; 2) mouse cancer cell lines including TRAMP-C2RE3 prostate cancer cells, B16 and K1735 melanoma cells, UV2237 fibrosarcoma cells, and CT-26 colon cancer cells; 3) immortalized mouse lung cell lines and mouse endothelial cell lines; and 4) primary human cell lines including umbilical endothelial cells (HUVEC, PromoCell, Heidelberg, Germany), primary bone marrow mesenchymal stem cells (HuMSC, PromoCell), primary human mammary epithelial cells (HuBrEC, Lonza, Walkersville, Md.), primary human prostate epithelial cells (HuPrEC, Lonza), and primary mouse spleen lymphocytes (isolated in this laboratory), and primary mouse bone marrow stromal cells (isolated in this laboratory). […]
(§2) IC50 values were derived from growth inhibition curves. […] Inhibition of cell growth was calculated using the formula: growth inhibition (%)=(1−A570 of treated/A570 of control)×100. […]

[2] = system: primary mouse bone marrow stromal cells; test: Growth inhibition, mouse bone marrow stromal cells; format: cell-based; conditions: normal cells, read-out: IC50 Values, Bone Marrow Stroma Cells
Experimental: as §1, §2

[3] = Toxicity evaluation in tumor-bearing mice; format: in vivo
Experimental: The therapeutic effects of PCNA-I1 were evaluated in LNCaP cells and 22Rv1 tumor models. LNCaP or 22Rv1 cells (1-2×10^6 cells in gelfoam) were implanted into the subcutis of male nude mice. From four to five days later, tumor-bearing mice were intraperitoneally injected with 10 mg/kg or 50 mg/kg of PCNA-I1. The therapy was continued at three times/week until termination of experiments. Control and treated tumor-bearing mice were monitored daily. Mouse body weight was recorded for toxicity evaluation twice a week and tumor size was measured using calipers twice a week. The experiments were terminated when mice in control groups were moribund. Additionally, to further evaluate potential liver and renal toxicity of PCNA-I1, the blood of tumor-bearing mice were sampled after the treatment with PCNA-I1 for 8 weeks.

[4] = system: CT26-R500 murine colon cancer cell line; test: Growth inhibition by MTT staining, CT26-R500; format: cell-based; conditions: Mouse tumor cells; cell line not given; read-out: IC50 Values, cell line cell blank (third row below UV2237)
Experimental: as §1, §2

PCNA = target: T1, PCNA (Homo sapiens, UniProt P12004); test: PCNA trimer formation assay, PC-3 cell lysate; format: biochemical; conditions: PC-3 lysate, 1 μM or 10 μM, 3 H, SDS-PAGE; FIG. 9(A)
T1 construct: endogenous PCNA was knocked down with transfection of PCNA-specific siRNA; endogenous in cells; host or cells: PC-3
T1 sequence (P12004 whole entry): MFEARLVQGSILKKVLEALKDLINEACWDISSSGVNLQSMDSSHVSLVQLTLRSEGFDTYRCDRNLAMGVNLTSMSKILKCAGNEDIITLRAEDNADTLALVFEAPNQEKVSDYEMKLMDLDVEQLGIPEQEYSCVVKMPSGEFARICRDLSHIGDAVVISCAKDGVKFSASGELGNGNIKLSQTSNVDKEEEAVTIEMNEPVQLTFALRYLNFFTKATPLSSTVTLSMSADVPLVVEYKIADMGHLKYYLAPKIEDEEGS
Experimental: The effect of PCNA-I1, PCNA-I2, PCNA-I3, PCNA-I4, PCNA-I6, PCNA-I7, PCNA-I8, PCNA-I9, and PCNA-I10 on PCNA trimer formation was investigated by SDS-PAGE and immunoblotting. Specifically, a trimer formation assay was performed on both PC-3 cell lysates and purified recombinant protein. The trimer formation assay was performed on purified recombinant protein to determine whether the effects of PCNA compounds on the stable trimer formation required the participation of other cellular proteins.
Purified His-PCNA (0.1 μg/reaction) and PC-3 cell lysates (50 μg/reaction) were incubated for 3 H at room temperature in a reaction buffer (40 mM Tris-HCl, pH 7.5, 0.2 mg/mL BSA, 10 mM MgCl2, and 10% glycerol) in the absence or presence of DMSO (0.1% vehicle control) or PCNA-I1, PCNA-I2, PCNA-I3, PCNA-I4, PCNA-I6, PCNA-I7, PCNA-I8, PCNA-I9, or PCNA-I10 (1 μM or 10 μM). The reaction was stopped by addition of the SDS-PAGE sample buffer without a reducing agent. The samples were resolved in SDS-PAGE without boiling and analyzed by immunoblotting using PCNA antibody.

[5] = system: LAPC-4 prostate cancer cells; test: Growth inhibition by MTT staining, LAPC-4; format: cell-based; conditions: LAPC4, 96 h, Human tumor cells, treated four days
Experimental: as §1, §2

Cc1ccsc1C(=O)N/N=C/c1ccc2ccccc2c1O [PCNA-I1]
IC50 [1]: 150 nM
IC50 [2]: 1900 nM
Body weight of tumor-bearing mice ([3]; 10 or 50 mg/kg i.p. every other day, up to 8 weeks): did not cause significant reduction in the body weight
Aspartate transaminase (AST or SGOT) ([3]; treatment for 8 weeks, FIG. 21): not significantly altered
Blood urea nitrogen (BUN) ([3]; treatment for 8 weeks, FIG. 21): not significantly altered
Serum alanine transaminase (ALT or SGPT) ([3]; treatment for 8 weeks, FIG. 21): not significantly altered
IC50 [4]: 70 nM
Portion of PCNA in the trimer form (PCNA): significantly elevated
IC50 [5]: 300 nM
